From PubChem BioAssay AID330 (DTP/NCI, 2004)
Where “and” joins values, the source holds several entries; their conditions need not be identical. Equal entries are not always repeated. Toxic doses and inconclusive results are not listed.

Tested on: P388 leukemia ip, CD2F1 mice, survival T/C
Test: NCI In Vivo Anticancer Drug Screen. Data for tumor model P388 Leukemia (intraperitoneal) in CD2F1 (CDF1) mice
Details: endpoint: median survival time, higher = longer survival
Outline: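 Mice carrying the transplanted tumor received test compound or vehicle. Survival was recorded in each group, and the value is the treated-group measurement divided by that of the vehicle-treated control group.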

[1] = dose: 50.0 mg/kg/injection, schedule: Q01DX005 (ip), vehicle: Klucel (hydroxypropylcellulose) (HPC)
[2] = dose: 100.0 mg/kg/injection, schedule: Q01DX005 (ip), vehicle: Klucel (hydroxypropylcellulose) (HPC)
[3] = dose: 100.0 mg/kg/injection, schedule: Q04DX002 (ip), vehicle: saline with Tween-80
[4] = dose: 200.0 mg/kg/injection, schedule: Q04DX002 (ip), vehicle: saline with Tween-80
[5] = dose: 400.0 mg/kg/injection, schedule: Q04DX002 (ip), vehicle: saline with Tween-80
[6] = dose: 100.0 mg/kg/injection, schedule: Q04DX003 (ip), vehicle: saline
[7] = dose: 200.0 mg/kg/injection, schedule: Q04DX003 (ip), vehicle: saline

Nc1ncnc2c1ncn2Cc1cccnc1
T/C [1]: 98 % of control
T/C [2]: 98 % of control
T/C (dose: 200.0 mg/kg/injection, schedule: Q01DX005 (ip), vehicle: Klucel (hydroxypropylcellulose) (HPC)): 100 % of control

N/C=N/OC(c1ccccc1)c1ccccc1
T/C (dose: 50.0 mg/kg/injection, schedule: Q01DX005 (ip), vehicle: Klucel + Tween-80): 99 % of control
T/C (dose: 100.0 mg/kg/injection, schedule: Q01DX005 (ip), vehicle: Klucel + Tween-80): 102 % of control
T/C (dose: 200.0 mg/kg/injection, schedule: Q01DX005 (ip), vehicle: Klucel + Tween-80): 98 % of control

CC(=O)OB(OC(C)=O)O[B-]12Oc3ccccc3C=[N+]1c1ccccc1S2 (stereo unspecified)
T/C [3]: 106 % of control
T/C [4]: 97 % of control
T/C [5]: 92 % of control

O=C1CCSC(=S)N1c1ccc(C(F)(F)F)cc1
T/C (dose: 50.0 mg/kg/injection, schedule: Q01DX009 (ip), vehicle: suspension in saline): 90 % of control
T/C (dose: 100.0 mg/kg/injection, schedule: Q01DX009 (ip), vehicle: suspension in saline): 97 % of control
T/C (dose: 200.0 mg/kg/injection, schedule: Q01DX009 (ip), vehicle: suspension in saline): 94 % of control

CCOc1ccc(/C=N/NC(=O)CC2CCCCC2)cc1OC
T/C (dose: 60.0 mg/kg/injection, schedule: Q01DX005 (ip), vehicle: saline with Tween-80): 90 % of control
T/C (dose: 120.0 mg/kg/injection, schedule: Q01DX005 (ip), vehicle: saline with Tween-80): 87 % of control
T/C (dose: 240.0 mg/kg/injection, schedule: Q01DX005 (ip), vehicle: saline with Tween-80): 95 % of control

CC(CO)CCC1OC2CC3C4CC=C5CC(O)CCC5(C)C4CCC3(C)C2C1C (stereo unspecified)
T/C (dose: 2.25 mg/kg/injection, schedule: Q01DX005 (ip), vehicle: Klucel (hydroxypropylcellulose) (HPC)): 98 % of control
T/C (dose: 4.5 mg/kg/injection, schedule: Q01DX005 (ip), vehicle: Klucel (hydroxypropylcellulose) (HPC)): 100 % of control
T/C (dose: 9.0 mg/kg/injection, schedule: Q01DX005 (ip), vehicle: Klucel (hydroxypropylcellulose) (HPC)): 88 % of control
T/C (dose: 36.0 mg/kg/injection, schedule: Q01DX005 (ip), vehicle: Klucel (hydroxypropylcellulose) (HPC)): 87 % of control

Cc1ccc(-n2c(=O)[nH]c3ccccc3c2=O)cc1[N+](=O)[O-]
T/C (dose: 6.25 mg/kg/injection, schedule: Q01DX005 (ip), vehicle: saline with Tween-80): 101 % of control
T/C (dose: 12.5 mg/kg/injection, schedule: Q01DX005 (ip), vehicle: saline with Tween-80): 97 % of control
T/C (dose: 200.0 mg/kg/injection, schedule: Q01DX005 (ip), vehicle: saline with Tween-80): 90 % of control

CS(=O)(=O)/C=C/C([N+](=O)[O-])[N+](=O)[O-]
T/C [6]: 109 % of control
T/C [7]: 104 % of control
T/C (dose: 400.0 mg/kg/injection, schedule: Q04DX003 (ip), vehicle: saline): 92 % of control

Nc1ncnc2c1ncn2C1OC(CO)C(N)C1O (stereo unspecified)
T/C [3]: 102 % of control
T/C [4]: 102 % of control
T/C [5]: 105 % of control

Cc1cc2nc3ccc(O)cc3[n+](C)c2cc1N
T/C (dose: 12.5 mg/kg/injection, schedule: Q01DX009 (ip), vehicle: saline): 98 % of control and 103 % of control
T/C (dose: 25.0 mg/kg/injection, schedule: Q01DX009 (ip), vehicle: saline): 100 % of control and 106 % of control
T/C (dose: 50.0 mg/kg/injection, schedule: Q01DX009 (ip), vehicle: saline): 96 % of control and 97 % of control
T/C (dose: 100.0 mg/kg/injection, schedule: Q01DX009 (ip), vehicle: saline): 99 % of control and 96 % of control

COc1ccc(-c2cc(=O)c3cccc(CC(=O)O)c3o2)cc1
T/C (dose: 12.5 mg/kg/injection, schedule: Q01DX005 (ip), vehicle: Klucel (hydroxypropylcellulose) (HPC)): 105 % of control
T/C (dose: 25.0 mg/kg/injection, schedule: Q01DX005 (ip), vehicle: Klucel (hydroxypropylcellulose) (HPC)): 104 % of control
T/C [1]: 114 % of control and 98 % of control
T/C [2]: 170 % of control

CC(O)(CO)C(C)(O)C(C)(O)c1cn(O)c(=N)c(C(=O)OCc2ccccc2)n1 (stereo unspecified)
T/C [6]: 93 % of control
T/C [7]: 102 % of control

Nc1nc(N)c2nc(Sc3ccc(Cl)cc3)c(-c3ccccc3)nc2n1
T/C (dose: 25.0 mg/kg/injection, schedule: Q04DX003 (ip), vehicle: saline with Tween-80): 95 % of control
T/C (dose: 50.0 mg/kg/injection, schedule: Q04DX003 (ip), vehicle: saline with Tween-80): 91 % of control
T/C (dose: 100.0 mg/kg/injection, schedule: Q04DX003 (ip), vehicle: saline with Tween-80): 93 % of control
